According to publication PMC10018608 (Signal Transduction and Targeted Therapy, 2023):
Read-outs that look alike come from different tables or passages of the source.

Legend:
[1] = in vivo; conditions: male, Sprague-Dawley, rat
[2] = biological target: T1, CYP2B6 (Homo sapiens, UniProt P20813); test: biochemical; assay type: in vitro ADME; conditions: CYP2B6 (Bupropion), HLM
T1 construct: Add 400 μL 0.2 mg/mL HLM; from tissue; host or cells: human liver microsomes (HLM)
Description: (§1) Preheat 0.1 M pH 7.4 K/Mg-buffer at 37 °C. The reference inhibitors for this assay are α-Naphthoflavone (1A2), Ticlopidine (2B6), Montelukast (2C8), Sulfaphenazole (2C9), Omeprazole (2C19), Quinidine (2D6), Ketoconazole (3A4). Test compound and reference inhibitors were dissolved in ACN. NADPH cofactor was dissolved in K/Mg-buffer. Each CYP450 isoform was prepared 2 mL substrate (1A2: Phenacetin, 2B6: Amfebutamone HCl, 2C8: Paclitaxel, 2C9: Diclofenac, 2C19: S-Mephenytoin, 2D6: Dextromethorphan, 3A4: Midazolam and Testosterone). Add 400 μL 0.2 mg/mL HLM and 2 μL of test compound set (serially diluted) to the assay wells. And then add 30 μL HLM-compound mixture and 15 μL substrate solution in the 96-well assay plate on ice. Then incubate the 96-well assay plate at 37 °C for 5 min. Add 15 µL of pre-warmed (37 °C) 8 mM NADPH solution to initiate the enzyme reaction. Incubate the assay plate at 37 °C for 5–45 min and quench the reaction. Then collect samples for LC/MS analysis.

[3] = biological target: T2, CYP2C8 (Homo sapiens, UniProt P10632); test: biochemical; assay type: in vitro ADME; conditions: CYP2C8 (Paclitaxel), HLM
T2 construct: Add 400 μL 0.2 mg/mL HLM; from tissue; host or cells: human liver microsomes (HLM)
Description: as §1

[4] = biological target: T3, CYP2C19 (Homo sapiens, UniProt P33261); test: biochemical; assay type: in vitro ADME; conditions: CYP2C19 (S-Mephenytoin), HLM
T3 construct: Add 400 μL 0.2 mg/mL HLM; from tissue; host or cells: human liver microsomes (HLM)
Description: as §1

[5] = biological target: T4, CYP3A4 (Homo sapiens, UniProt P08684); test: biochemical; assay type: in vitro ADME
T4 construct: Add 400 μL 0.2 mg/mL HLM; from tissue; host or cells: human liver microsomes (HLM)
Description: as §1

[6] = biological target: T5, CYP2C9 (Homo sapiens, UniProt P11712); test: biochemical; assay type: in vitro ADME; conditions: CYP2C9 (Diclofenac), HLM
T5 construct: Add 400 μL 0.2 mg/mL HLM; from tissue; host or cells: human liver microsomes (HLM)
Description: as §1

[7] = biological target: T6, CYP2D6 (Homo sapiens, UniProt P10635); test: biochemical; assay type: in vitro ADME; conditions: CYP2D6 (Dextromethorphan), HLM
T6 construct: Add 400 μL 0.2 mg/mL HLM; from tissue; host or cells: human liver microsomes (HLM)
Description: as §1

[8] = biological target: T7, CYP1A2 (Homo sapiens, UniProt P05177); test: biochemical; assay type: in vitro ADME; conditions: CYP1A2 (Phenacetin), HLM
T7 construct: Add 400 μL 0.2 mg/mL HLM; from tissue; host or cells: human liver microsomes (HLM)
Description: as §1

[9] = in vitro; assay type: cell-based; conditions: 72 h
Description: Cells were seeded and grown in 96 well plates overnight. Then various concentrations of compounds in fresh medium were added and incubated for 72 h. Using MTT (Sigma) assay to determine the cell viability.

[10] = Monkey
[11] = in vitro; assay type: in vitro ADME, human; conditions: human plasma, equilibrium dialysis; read-out: plasma unbound fraction
[12] = system: human plasma protein; test: in vitro; assay type: in vitro ADME; conditions: human plasma, 1 μM, equilibrium dialysis 5 h
[13] = for Corpora lutea / Implantation sites / Live embryos / Resorptions: cesarean section observation; for appearance malformation rate (%): fetal appearance
[14] = in vitro; assay type: in vitro ADME; conditions: human, microsomes, HLM 0.5 mg/mL, 1 μM
[15] = system: SARS-CoV-2 (B.1.1.7); test: Plaque reduction assay in VeroE6-TMPRSS2; assay type: cell-based; conditions: Severe acute respiratory syndrome coronavirus 2
[16] = ICR Mice
[17] = in vivo; conditions: male, cynomolgus monkey
[18] = female, SD, rat, in vivo, 1000 mg/kg

T4 sequence (P08684 whole entry): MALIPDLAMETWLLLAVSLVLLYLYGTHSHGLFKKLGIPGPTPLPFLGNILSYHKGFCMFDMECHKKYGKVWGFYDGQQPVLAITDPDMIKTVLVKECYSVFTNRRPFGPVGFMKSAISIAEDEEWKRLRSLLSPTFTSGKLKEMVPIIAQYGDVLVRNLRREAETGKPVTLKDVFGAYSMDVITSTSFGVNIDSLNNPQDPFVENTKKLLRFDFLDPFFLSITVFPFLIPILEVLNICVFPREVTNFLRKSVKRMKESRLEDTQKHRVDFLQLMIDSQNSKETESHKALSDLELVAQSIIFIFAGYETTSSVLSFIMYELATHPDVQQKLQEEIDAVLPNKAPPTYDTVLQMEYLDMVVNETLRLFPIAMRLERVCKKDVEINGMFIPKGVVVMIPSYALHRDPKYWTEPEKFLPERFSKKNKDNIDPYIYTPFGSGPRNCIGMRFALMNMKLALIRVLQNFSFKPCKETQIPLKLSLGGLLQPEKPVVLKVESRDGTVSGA
T3 sequence (P33261 whole entry): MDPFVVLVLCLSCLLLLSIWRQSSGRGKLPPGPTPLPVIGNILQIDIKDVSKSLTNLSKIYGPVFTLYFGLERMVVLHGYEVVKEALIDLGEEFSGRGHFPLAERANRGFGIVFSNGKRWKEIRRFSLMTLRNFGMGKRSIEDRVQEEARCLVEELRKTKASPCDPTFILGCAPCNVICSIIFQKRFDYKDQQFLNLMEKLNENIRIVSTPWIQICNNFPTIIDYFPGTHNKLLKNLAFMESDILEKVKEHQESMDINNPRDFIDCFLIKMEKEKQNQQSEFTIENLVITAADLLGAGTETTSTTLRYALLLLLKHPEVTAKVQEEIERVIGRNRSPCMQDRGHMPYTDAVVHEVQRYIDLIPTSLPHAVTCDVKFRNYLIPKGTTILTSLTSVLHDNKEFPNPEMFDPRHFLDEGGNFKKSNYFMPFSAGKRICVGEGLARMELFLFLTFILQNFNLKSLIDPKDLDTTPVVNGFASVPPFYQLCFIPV
T2 sequence (P10632 whole entry): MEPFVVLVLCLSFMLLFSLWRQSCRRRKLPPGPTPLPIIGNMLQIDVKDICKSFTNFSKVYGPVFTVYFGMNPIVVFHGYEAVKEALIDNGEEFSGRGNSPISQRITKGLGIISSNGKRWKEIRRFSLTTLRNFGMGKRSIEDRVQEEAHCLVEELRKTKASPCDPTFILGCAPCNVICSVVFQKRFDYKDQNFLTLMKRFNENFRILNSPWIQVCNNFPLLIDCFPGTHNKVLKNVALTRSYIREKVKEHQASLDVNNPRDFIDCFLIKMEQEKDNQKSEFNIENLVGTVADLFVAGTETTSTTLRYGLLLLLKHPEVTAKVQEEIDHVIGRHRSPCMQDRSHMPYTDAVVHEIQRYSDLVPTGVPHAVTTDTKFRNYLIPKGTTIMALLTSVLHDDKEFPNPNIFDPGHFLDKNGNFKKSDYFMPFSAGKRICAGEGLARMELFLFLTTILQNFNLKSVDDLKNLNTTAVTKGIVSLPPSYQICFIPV
T6 sequence (P10635 whole entry): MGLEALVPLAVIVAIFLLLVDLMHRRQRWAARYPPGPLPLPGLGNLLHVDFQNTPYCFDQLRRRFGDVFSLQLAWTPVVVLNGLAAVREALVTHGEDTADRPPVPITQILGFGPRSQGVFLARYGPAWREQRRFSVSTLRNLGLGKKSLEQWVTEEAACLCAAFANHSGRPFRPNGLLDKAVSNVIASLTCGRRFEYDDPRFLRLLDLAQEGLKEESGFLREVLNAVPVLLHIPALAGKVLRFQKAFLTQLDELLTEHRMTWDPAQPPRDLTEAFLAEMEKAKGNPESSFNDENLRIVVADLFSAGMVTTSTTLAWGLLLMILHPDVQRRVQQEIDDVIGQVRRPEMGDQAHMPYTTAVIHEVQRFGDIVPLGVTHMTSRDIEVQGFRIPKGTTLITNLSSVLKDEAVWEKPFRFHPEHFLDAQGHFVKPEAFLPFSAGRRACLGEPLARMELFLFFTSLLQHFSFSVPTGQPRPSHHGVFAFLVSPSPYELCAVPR
T7 sequence (P05177 whole entry): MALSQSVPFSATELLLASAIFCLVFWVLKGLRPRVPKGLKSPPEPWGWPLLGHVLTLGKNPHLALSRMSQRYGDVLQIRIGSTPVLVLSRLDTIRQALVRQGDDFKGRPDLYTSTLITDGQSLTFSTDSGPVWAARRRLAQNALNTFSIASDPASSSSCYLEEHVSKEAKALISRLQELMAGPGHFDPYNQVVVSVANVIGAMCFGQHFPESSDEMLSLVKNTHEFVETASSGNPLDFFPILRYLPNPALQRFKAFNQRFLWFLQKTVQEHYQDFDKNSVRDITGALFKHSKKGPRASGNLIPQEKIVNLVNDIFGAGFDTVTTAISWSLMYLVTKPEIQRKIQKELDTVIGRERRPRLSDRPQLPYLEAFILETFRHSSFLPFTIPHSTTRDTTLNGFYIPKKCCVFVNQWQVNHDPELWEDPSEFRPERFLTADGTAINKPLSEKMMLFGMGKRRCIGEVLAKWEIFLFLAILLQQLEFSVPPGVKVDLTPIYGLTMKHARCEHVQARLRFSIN
T1 sequence (P20813 whole entry): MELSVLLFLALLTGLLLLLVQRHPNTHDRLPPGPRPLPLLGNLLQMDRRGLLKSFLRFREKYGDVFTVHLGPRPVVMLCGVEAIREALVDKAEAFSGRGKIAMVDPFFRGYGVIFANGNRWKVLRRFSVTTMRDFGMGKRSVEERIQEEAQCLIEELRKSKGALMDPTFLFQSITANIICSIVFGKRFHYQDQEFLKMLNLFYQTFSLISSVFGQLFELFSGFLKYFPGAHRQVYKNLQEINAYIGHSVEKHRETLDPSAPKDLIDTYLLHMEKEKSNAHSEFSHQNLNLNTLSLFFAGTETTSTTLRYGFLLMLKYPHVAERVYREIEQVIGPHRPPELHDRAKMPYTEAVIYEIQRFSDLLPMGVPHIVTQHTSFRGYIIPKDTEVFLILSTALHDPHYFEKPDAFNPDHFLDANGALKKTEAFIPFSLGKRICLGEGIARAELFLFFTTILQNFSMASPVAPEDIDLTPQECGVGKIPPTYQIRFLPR
T5 sequence (P11712 whole entry): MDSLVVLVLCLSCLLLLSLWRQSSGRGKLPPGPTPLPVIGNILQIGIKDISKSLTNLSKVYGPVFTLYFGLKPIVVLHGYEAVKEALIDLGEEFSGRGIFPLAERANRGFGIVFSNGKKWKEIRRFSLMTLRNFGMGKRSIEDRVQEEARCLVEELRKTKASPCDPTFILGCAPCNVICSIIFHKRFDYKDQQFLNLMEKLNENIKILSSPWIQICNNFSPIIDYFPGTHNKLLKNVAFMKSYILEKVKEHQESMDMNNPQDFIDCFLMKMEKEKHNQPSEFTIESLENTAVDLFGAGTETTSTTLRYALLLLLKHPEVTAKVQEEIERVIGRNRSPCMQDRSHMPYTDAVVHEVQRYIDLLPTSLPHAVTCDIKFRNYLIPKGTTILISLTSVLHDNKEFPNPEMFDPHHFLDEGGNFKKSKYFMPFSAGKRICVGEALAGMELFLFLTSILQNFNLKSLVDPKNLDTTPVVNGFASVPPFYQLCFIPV

COC[C@@H](NC(=O)C1CCCC(F)(F)C1)C(=O)N[C@H](Cc1ccccc1)C(=O)C(=O)NCc1nccs1 (stereo partly drawn) [SY110, N-((R)-1-(((R)-3,4-dioxo-1-phenyl-4-((thiazol-2-ylmethyl)amino)butan-2-yl)amino)-3-methoxy-1-oxopropan-2-yl)-3,3-difluorocyclohexane-1-carboxamide]
AUC(0-inf) ([1]; iv, 1 mg/kg): 2320 ± 592 ng·h/mL | AUC(0-t) ([1]; iv, 1 mg/kg): 2300 ± 587 ng·h/mL | Cmax ([1]; iv, 1 mg/kg): 1740 ± 285 ng/mL | Tmax ([1]; iv, 1 mg/kg): 0.08 h | clearance ([1]; iv, 1 mg/kg): 7.47 ± 1.67 mL/min/kg | half-life ([1]; iv, 1 mg/kg): 4.67 ± 0.19 h | AUC(0-inf) ([1]; po, 10 mg/kg): 20200 ± 2600 ng·h/mL | AUC(0-t) ([1]; po, 10 mg/kg): 19000 ng·h/mL | Cmax ([1]; po, 10 mg/kg): 1430 ± 98.5 ng/mL | Tmax ([1]; po, 10 mg/kg): 4 ± 2 h | bioavailability ([1]; po, 10 mg/kg): 82.8% | half-life ([1]; po, 10 mg/kg): 5.16 ± 2.94 h | IC50 [2]: > 30 µM | IC50 [3]: > 30 µM | IC50 [4]: > 30 µM | IC50 ([5]; CYP3A4 (Midazolam), HLM): > 30 µM | IC50 ([5]; CYP3A4 (Testosterone), HLM): > 30 µM | IC50 ([5]; CYP3A4, text, substrate not stated there): > 30 µM | IC50 [6]: > 30 µM | IC50 [7]: > 30 µM | IC50 [8]: > 30 µM | CC50 ([9]; African green monkey, VeroE6, MTT): > 500 µM | CC50 ([9]; human, BEAS-2B, MTT): > 500 µM | CC50 ([9]; human, HUVEC, MTT): > 500 µM | MTRlast ([10]; i.v. (1 mg/kg)): 0.90 ± 0.18 h | MTRlast ([10]; p.o. (10 mg/kg)): 4.71 ± 0.89 h | fraction unbound [11]: 0.301 | Fraction of Bound (%) [12]: 69.9% | Abnormal initial position of common carotid artery [13, 18]: 0.0 ± 0.0 | Abnormal initial position of subclavian artery [13, 18]: 0.0 ± 0.0 | Abnormal position of umbilical artery [13, 18]: 0.0 ± 0.0 | Absent of aortic arch [13, 18]: 0.0 ± 0.0 | Absent of innominate artery [13, 18]: 0.0 ± 0.0 | Rib: 14 Ribs – [V] [13, 18]: 6.9 ± 10.1 | Rib: Shortened #13 – [V] [13, 18]: 2.9 ± 6.4 | Skull: Interparietal bone, incomplete ossification – [V] [13, 18]: 0.0 ± 0.0 | Skull: Parietal bone, incomplete ossification – [V] [13, 18]: 0.0 ± 0.0 | Visceral malformation rate (%) [13, 18]: 0.0 ± 0.0% | Corpora lutea ([13]; rat, 100 mg/kg): 16.2 ± 2.1 | Implantation sites ([13]; rat, 100 mg/kg): 15.0 ± 3.5 | Live embryos ([13]; rat, 100 mg/kg): 14.5 ± 3.6 | Resorptions ([13]; rat, 100 mg/kg): 0.5 ± 0.8 | Corpora lutea ([13]; rat, 300 mg/kg): 17.7 ± 1.5 | Implantation sites ([13]; rat, 300 mg/kg): 16.9 ± 1.5 | Live embryos ([13]; rat, 300 mg/kg): 16.3 ± 1.6 | Resorptions ([13]; rat, 300 mg/kg): 0.6 ± 0.5 | Corpora lutea ([13]; rat, 1000 mg/kg): 17.4 ± 2.5 | Implantation sites ([13]; rat, 1000 mg/kg): 17.0 ± 2.5 | Live embryos ([13]; rat, 1000 mg/kg): 16.4 ± 2.1 | Resorptions ([13]; rat, 1000 mg/kg): 0.6 ± 0.9 | appearance malformation rate (%) ([13]; rat, 100 mg/kg): 0.0 ± 0.0% | appearance malformation rate (%) ([13]; rat, 300 mg/kg): 0.0 ± 0.0% | appearance malformation rate (%) ([13]; rat, 1000 mg/kg): 0.0 ± 0.0% | embryo-fetal development study outcome ([13]; rats, 1000 mg/kg/day (the highest dose tested)): no observed SY110-related maternal toxicity, reproductive toxicity, and effect on embryo-fetal viability | remaining at 0 h ([14]; 0 min, Mean, read-out: Percent Remaining (%) 0 min): 100% | remaining at 5 min ([14]; 5 min, Mean, read-out: Percent Remaining (%) 5 min): 80.7% | remaining at […] ([14]; 15 min, Mean, read-out: Percent Remaining (%) 15 min): 65.4% | remaining at 0.5 h ([14]; 30 min, Mean, read-out: Percent Remaining (%) 30 min): 48% | remaining at 0.75 h ([14]; 45 min, Mean, read-out: Percent Remaining (%) 45 min): 37.2% | remaining at 1 h ([14]; 60 min, Mean, read-out: Percent Remaining (%) 60 min): 29.8% | CLint scaled ([14]; scaling factor 1254.2): 49.2 mL/min/kg | EC50 [15]: 1.21 µM | MTRlast ([16]; i.v. (1 mg/kg)): 0.17 ± 0.03 h | Vzobs ([16]; i.v. (1 mg/kg)): 4.27 ± 2.29 L/kg | MTRlast ([16]; p.o. (150 mg/kg)): 3.62 ± 1.18 h | AUC(0-inf) ([17]; iv, 1 mg/kg): 506 ± 60.7 ng·h/mL | AUC(0-t) ([17]; iv, 1 mg/kg): 501 ± 59.9 ng·h/mL | Cmax ([17]; iv, 1 mg/kg): 567 ± 38.2 ng/mL | Tmax ([17]; iv, 1 mg/kg): 0.08 h | clearance ([17]; iv, 1 mg/kg): 33.3 mL/min/kg | half-life ([17]; iv, 1 mg/kg): 0.73 ± 0.2 h | AUC(0-t) ([17]; po, 10 mg/kg): 1220 ± 56.8 ng·h/mL | Cmax ([17]; po, 10 mg/kg): 242 ± 54.2 ng/mL | Tmax ([17]; po, 10 mg/kg): 2.33 ± 1.53 h | bioavailability ([17]; po, 10 mg/kg): 24.4% | half-life ([17]; po, 10 mg/kg): 5.57 ± 1.05 h
